Assay results published in paper PMC9516332 (Frontiers in Oncology, 2022).
Like-named read-outs stand apart in the source and are kept apart here.

Key:
Assay in all cases: Kinase panel profiling at 1 µmol/L (MSA or IMAP), percentage inhibition
Assay type in all cases: biochemical
[1] = molecular target: panel of 255 wild-type kinases (Homo sapiens, UniProt P07948); conditions: read-out: %-inhibition at 1 µmol/L, LYNa
[2] = molecular target: panel of 255 wild-type kinases (Homo sapiens, UniProt P22455); conditions: read-out: %-inhibition at 1 µmol/L, FGFR4
[3] = molecular target: T1, panel of 255 wild-type kinases (Homo sapiens, UniProt P42681); conditions: read-out: %-inhibition at 1 µmol/L, TXK
T1 sequence (P42681 1-527): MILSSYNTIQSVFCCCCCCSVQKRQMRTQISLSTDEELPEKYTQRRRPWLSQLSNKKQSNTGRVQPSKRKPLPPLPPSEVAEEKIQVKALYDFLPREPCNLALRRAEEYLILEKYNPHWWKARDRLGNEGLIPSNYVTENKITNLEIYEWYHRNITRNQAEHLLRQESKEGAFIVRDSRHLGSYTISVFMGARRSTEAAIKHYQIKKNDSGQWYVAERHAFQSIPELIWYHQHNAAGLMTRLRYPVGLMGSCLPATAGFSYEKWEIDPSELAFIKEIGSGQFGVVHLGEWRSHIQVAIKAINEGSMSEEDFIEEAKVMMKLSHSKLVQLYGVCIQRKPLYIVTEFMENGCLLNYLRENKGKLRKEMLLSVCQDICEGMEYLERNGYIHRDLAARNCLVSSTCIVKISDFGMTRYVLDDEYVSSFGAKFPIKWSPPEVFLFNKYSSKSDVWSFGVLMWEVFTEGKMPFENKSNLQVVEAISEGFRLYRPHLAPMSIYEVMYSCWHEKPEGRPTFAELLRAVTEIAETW

[4] = molecular target: panel of 255 wild-type kinases (Homo sapiens, UniProt P53779); conditions: read-out: %-inhibition at 1 µmol/L, JNK3
[5] = molecular target: T2, panel of 255 wild-type kinases (Homo sapiens, UniProt Q13237); conditions: read-out: %-inhibition CGK2
T2 sequence (Q13237 1-762): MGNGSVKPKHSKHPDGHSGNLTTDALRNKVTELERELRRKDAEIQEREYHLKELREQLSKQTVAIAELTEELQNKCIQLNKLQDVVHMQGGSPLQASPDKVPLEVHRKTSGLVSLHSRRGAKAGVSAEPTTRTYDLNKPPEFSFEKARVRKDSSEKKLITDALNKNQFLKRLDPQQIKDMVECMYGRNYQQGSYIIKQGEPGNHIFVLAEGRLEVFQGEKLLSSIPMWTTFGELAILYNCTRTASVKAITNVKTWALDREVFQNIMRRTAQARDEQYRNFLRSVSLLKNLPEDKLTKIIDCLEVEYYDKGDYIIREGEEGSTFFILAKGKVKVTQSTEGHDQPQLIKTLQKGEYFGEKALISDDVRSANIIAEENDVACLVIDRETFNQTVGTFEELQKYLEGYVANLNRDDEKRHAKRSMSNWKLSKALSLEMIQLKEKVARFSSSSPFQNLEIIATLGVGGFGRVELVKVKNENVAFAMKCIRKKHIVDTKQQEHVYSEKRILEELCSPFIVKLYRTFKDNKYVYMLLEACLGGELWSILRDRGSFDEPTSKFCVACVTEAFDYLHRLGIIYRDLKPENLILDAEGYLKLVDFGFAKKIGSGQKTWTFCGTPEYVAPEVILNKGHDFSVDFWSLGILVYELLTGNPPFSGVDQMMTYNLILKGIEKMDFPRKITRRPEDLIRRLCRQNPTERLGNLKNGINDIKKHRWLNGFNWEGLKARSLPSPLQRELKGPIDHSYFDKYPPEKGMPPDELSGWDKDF

[6] = molecular target: panel of 255 wild-type kinases (Homo sapiens, UniProt Q13464); conditions: read-out: %-inhibition at 1 µmol/L, ROCK1
[7] = molecular target: T3, panel of 255 wild-type kinases (Homo sapiens, UniProt Q13470); conditions: read-out: %-inhibition at 1 µmol/L, TNK1
T3 sequence (Q13470 1-666): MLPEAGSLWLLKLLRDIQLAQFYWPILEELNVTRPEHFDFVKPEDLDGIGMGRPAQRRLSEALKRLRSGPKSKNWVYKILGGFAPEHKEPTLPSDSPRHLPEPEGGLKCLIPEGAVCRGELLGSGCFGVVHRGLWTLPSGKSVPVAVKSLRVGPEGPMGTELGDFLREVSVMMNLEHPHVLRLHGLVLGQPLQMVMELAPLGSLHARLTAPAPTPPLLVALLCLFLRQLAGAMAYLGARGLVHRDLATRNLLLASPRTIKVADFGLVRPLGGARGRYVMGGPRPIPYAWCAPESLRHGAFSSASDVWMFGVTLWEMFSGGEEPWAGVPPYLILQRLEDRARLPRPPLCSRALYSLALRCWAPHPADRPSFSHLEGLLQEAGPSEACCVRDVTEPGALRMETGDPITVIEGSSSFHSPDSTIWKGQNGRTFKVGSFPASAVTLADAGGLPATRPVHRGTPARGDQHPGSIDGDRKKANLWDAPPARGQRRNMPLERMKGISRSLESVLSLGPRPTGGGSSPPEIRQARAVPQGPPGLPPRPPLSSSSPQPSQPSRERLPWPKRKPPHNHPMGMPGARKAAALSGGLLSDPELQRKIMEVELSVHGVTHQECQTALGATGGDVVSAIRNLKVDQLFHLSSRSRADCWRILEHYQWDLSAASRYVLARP

[8] = molecular target: panel of 255 wild-type kinases (Homo sapiens, UniProt Q13554); conditions: read-out: %-inhibition CaMK2β
[9] = molecular target: panel of 255 wild-type kinases (Homo sapiens, UniProt Q5VT25); conditions: read-out: %-inhibition, MRCKα
[10] = molecular target: panel of 255 wild-type kinases (Homo sapiens, UniProt Q7KZI7); conditions: read-out: %-inhibition, MARK2
[11] = kinase LYNa, 1 µmol/L single concentration
[12] = kinase FGFR4, 1 µmol/L single concentration
[13] = kinase TXK, 1 µmol/L single concentration
[14] = kinase JNK3, 1 µmol/L single concentration
[15] = CGK2 kinase assay, 1 µmol/L single concentration
[16] = kinase ROCK1, 1 µmol/L single concentration
[17] = kinase TNK1, 1 µmol/L single concentration
[18] = CaMK2β kinase assay, 1 µmol/L single concentration
[19] = MRCKα, 1 µmol/L single concentration
[20] = MARK2, 1 µmol/L single concentration

| Compound | inhibition at 1 µM [1, 11] [%] | inhibition at 1 µM [2, 12] [%] | inhibition at 1 µM [3, 13] [%] | inhibition at 1 µM [4, 14] [%] | inhibition at 1 µM [5, 15] [%] | inhibition at 1 µM [6, 16] [%] | inhibition at 1 µM [7, 17] [%] | inhibition at 1 µM [8, 18] [%] | inhibition at 1 µM [9, 19] [%] | inhibition at 1 µM [10, 20] [%] | inhibition at 1 µM [1] [%] | inhibition at 1 µM [2] [%] | inhibition at 1 µM [3] [%] | inhibition at 1 µM [4] [%] | inhibition at 1 µM [5] [%] | inhibition at 1 µM [6] [%] | inhibition at 1 µM [7] [%] | inhibition at 1 µM [8] [%] | inhibition at 1 µM [9] [%] | inhibition at 1 µM [10] [%] |
| --- | --- | --- | --- | --- | --- | --- | --- | --- | --- | --- | --- | --- | --- | --- | --- | --- | --- | --- | --- | --- |
| Cc1nc(NC(=O)N2CCC[C@H]2C(N)=O)sc1-c1ccnc(C(C)(C)C(F)(F)F)c1 [alpelisib] | 1.8 | 9 | -4 | -12 | -5 | -0.415 | -4.23 | -7 | -2 | -0.36 | – | – | – | – | – | – | – | – | – | – |
| Cn1cc(-c2cc3c(N4CCN(c5ncc([C@@](C)(N)c6ccc(F)cc6)cn5)CC4)ncnn3c2)cn1 [avapritinib] | 87 | 41 | 20 | 2.14 | 4.65 | 2 | 19 | 0.895 | 4 | -12 | – | – | – | – | – | – | – | – | – | – |
| Cn1cnc2c(F)c(Nc3ccc(Br)cc3F)c(C(=O)NOCCO)cc21 [binimetinib] | 3.76 | 4.66 | -3 | 7 | 2.58 | -7 | -8 | 2.18 | -5.53 | -6 | – | – | – | – | – | – | – | – | – | – |
| CNC(=O)c1ccc(-c2cnc3ncc(Cc4ccc5ncccc5c4)n3n2)cc1F [capmatinib] | – | – | – | – | – | – | – | – | – | – | 1.12 | 8 | 2.34 | 5 | -1.13 | 1.06 | -11 | 0.692 | 0.535 | -8 |
| COc1cc2ncnc(Nc3ccc(F)c(Cl)c3)c2cc1NC(=O)/C=C/CN1CCCCC1 [dacomitinib] | 79 | -4.42 | 80 | 0.338 | 10 | -2.68 | 35 | 2.54 | 4.59 | -0.433 | – | – | – | – | – | – | – | – | – | – |
| C[C@H](Nc1ncnc2nc[nH]c12)c1cc2cccc(Cl)c2c(=O)n1-c1ccccc1 [duvelisib] | 0.825 | 5 | -0.177 | -10 | -0.775 | -4.36 | -2.72 | -7.37 | -3.44 | -2.13 | – | – | – | – | – | – | – | – | – | – |
| COC(=O)N[C@@H](C)CNc1nccc(-c2cn(C(C)C)nc2-c2cc(Cl)cc(NS(C)(=O)=O)c2F)n1 [encorafenib] | 5 | 4.23 | -3.43 | 59 | 0.267 | 0.403 | -3.4 | 4.23 | 0.0684 | 5.68 | – | – | – | – | – | – | – | – | – | – |
| CN1CCN(c2ccc(C(=O)Nc3n[nH]c4ccc(Cc5cc(F)cc(F)c5)cc34)c(NC3CCOCC3)c2)CC1 [entrectinib] | 74 | 38 | 98 | -1.69 | 4.42 | 4.51 | 99 | 13 | -3.42 | 9 | – | – | – | – | – | – | – | – | – | – |
| CCc1nc(C(N)=O)c(Nc2ccc(N3CCC(N4CCN(C)CC4)CC3)c(OC)c2)nc1NC1CCOCC1 [gilteritinib] | 88 | 15 | 79 | 52 | 82 | 60 | 97 | 24 | 12 | 43 | – | – | – | – | – | – | – | – | – | – |
| CCN1CCN(c2ccc(Nc3cc(N(C)C(=O)Nc4c(Cl)c(OC)cc(OC)c4Cl)ncn3)cc2)CC1 [infigratinib] | 84 | – | 4.32 | 4 | -2 | 0.396 | 21 | – | 0.933 | -9 | – | – | – | – | – | – | – | – | – | – |
| O=C(Nc1cnn2ccc(N3CCC[C@@H]3c3cc(F)ccc3F)nc12)N1CC[C@H](O)C1 [larotrectinib] | 5 | 6 | 16 | -7 | -0.443 | -5.36 | -0.876 | 0.902 | 0.38 | -19 | – | – | – | – | – | – | – | – | – | – |
| C[C@H]1Oc2cc(cnc2N)-c2c(nn(C)c2C#N)CN(C)C(=O)c2ccc(F)cc21 [lorlatinib] | 21 | 20 | 3.52 | -8.55 | -3 | 3.64 | 97 | -3.21 | -6 | 11 | – | – | – | – | – | – | – | – | – | – |
| C=CC(=O)N1CCC([C@@H]2CCNc3c(C(N)=O)c(-c4ccc(Oc5ccccc5)cc4)nn32)CC1 [zanubrutinib] | – | 7.51 | 89 | -8 | -0.389 | -1.57 | 1.66 | 2.44 | -0.931 | -21 | – | – | – | – | – | – | – | – | – | – |
